According to ChEMBL document CHEMBL1201862, “PubChem BioAssay data set” (2004):
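Cultured in 96-well plates, cells were exposed to test compound for 48 hours across five concentrations. GI50 = concentration required for 50% inhibition of growth.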 Activity calls are given as the source filed them. Cut-off read from the data, not from the text of the source: active = GI50 up to about 1.1 µM and inactive = higher.

Legend:
Experiment in all cases: DTP human tumour cell line panel, 48 h
ACHN = test system: ACHN
NCI-H460 = test system: NCI-H460
SF-268 = test system: SF-268
OVCAR-8 = test system: OVCAR-8
UACC-62 = test system: UACC-62
HCT-15 = test system: HCT-15
SN12C = test system: SN12C
MDA-MB-231 = test system: MDA-MB-231
KM12 = test system: KM12
SNB-75 = test system: SNB-75
HT-29 = test system: HT-29
LOX IMVI = test system: LOX IMVI
SK-OV-3 = test system: SK-OV-3
CAKI-1 = test system: CAKI-1
SR = test system: SR
TK-10 = test system: TK-10
HOP-92 = test system: HOP-92
M14 = test system: M14
CCRF-CEM = test system: CCRF-CEM
SNB-19 = test system: SNB-19

SMILES	GI50 (ACHN)	GI50 (NCI-H460)	GI50 (SF-268)	GI50 (OVCAR-8)	GI50 (UACC-62)	GI50 (HCT-15)	GI50 (SN12C)	GI50 (MDA-MB-231)	GI50 (KM12)	GI50 (SNB-75)	GI50 (HT-29)	GI50 (LOX IMVI)	GI50 (SK-OV-3)	GI50 (CAKI-1)	GI50 (SR)	GI50 (TK-10)	GI50 (HOP-92)	GI50 (M14)	GI50 (CCRF-CEM)	GI50 (SNB-19)
O=C1CCC(c2ccccc2)=NN1c1nc2ccccc2s1	29.9 µM (inactive)	27.7 µM (inactive)	27.2 µM (inactive)	34.8 µM (inactive)	30.3 µM (inactive)	29.6 µM	29.4 µM (inactive)	20.9 µM (inactive)	29.6 µM (inactive)	22.3 µM (inactive)	37.4 µM (inactive)	38.6 µM (inactive)	25.2 µM (inactive)	32.4 µM (inactive)	29.7 µM (inactive)	35.8 µM (inactive)	26.7 µM (inactive)	49.7 µM (inactive)	23.1 µM (inactive)	35.6 µM (inactive)
CC(=O)O[C@H]1C#C/C=C\C#CC[C@@H]2C(=O)N(C(=O)OC(C)(C)C)[C@@H]12	4 µM (inactive)	0.25 µM (active)	16.8 µM (inactive)	14.5 µM (inactive)	14.8 µM (inactive)	13.6 µM	18.8 µM (inactive)	55.3 µM (inactive)	53.7 µM (inactive)	21.5 µM (inactive)	36.1 µM (inactive)	13.1 µM (inactive)	62.4 µM (inactive)	6.46 µM (inactive)	24 µM (inactive)	> 55.1 µM (inactive)	26.9 µM (inactive)	28.3 µM (inactive)	1.52 µM (inactive)	18.7 µM (inactive)
CN(C)CCCN1C(=S)N(CCCN(C)C)c2c3cc(O)ccc3nc3c([N+](=O)[O-])ccc1c23	0.703 µM (active)	0.34 µM (active)	1.53 µM (inactive)	1.87 µM (inactive)	5.13 µM (inactive)	1.87 µM	2.65 µM (inactive)	3.71 µM (inactive)	2.7 µM (inactive)	3.37 µM (inactive)	0.757 µM (active)	1.26 µM (inactive)	4.11 µM (inactive)	1.66 µM (inactive)	0.278 µM (active)	11.5 µM (inactive)	2.38 µM (inactive)	7.05 µM (inactive)	1.18 µM (inactive)	2.06 µM (inactive)
COc1cccc(C[C@H]2COC(=O)[C@]2(O)Cc2cccc(OC)c2)c1	> 100 µM (inactive)	48.2 µM (inactive)	< 0.01 µM (active)	> 100 µM (inactive)	60.1 µM (inactive)	> 100 µM	> 100 µM (inactive)	> 100 µM (inactive)	91.2 µM (inactive)	> 100 µM (inactive)	> 100 µM (inactive)	> 100 µM (inactive)	> 100 µM (inactive)	18.1 µM (inactive)	> 100 µM (inactive)	70.6 µM (inactive)	79.6 µM (inactive)	> 100 µM (inactive)	> 100 µM (inactive)	> 100 µM (inactive)
CN(Cc1nc2c(N)nc(N)nc2nc1N)c1ccc(C(=O)NC(CCC(=O)O)C(=O)O)cc1 (stereo not given)	0.041 µM (active)	< 0.0122 µM (active)	0.299 µM (active)	0.0413 µM (active)	0.0603 µM (active)	0.0708 µM	0.365 µM (active)	> 100 µM (inactive)	> 100 µM (inactive)	7.45 µM (inactive)	< 0.01 µM (active)	< 0.01 µM (active)	> 100 µM (inactive)	0.0322 µM (active)	< 0.01 µM (active)	0.752 µM (active)	> 100 µM (inactive)	0.0615 µM (active)	< 0.01 µM (active)	64.6 µM (inactive)
O=[N+]([O-])c1ccc(O)c(/C=N/NC(=S)N2CCCCC2)c1	1.84 µM (inactive)	4.81 µM (inactive)	2.45 µM (inactive)	1.8 µM (inactive)	3.3 µM (inactive)	1.39 µM	3.13 µM (inactive)	5.89 µM (inactive)	3.59 µM (inactive)	4.22 µM (inactive)	2.33 µM (inactive)	1.57 µM (inactive)	4.8 µM (inactive)	3.51 µM (inactive)	2.43 µM (inactive)	4.98 µM (inactive)	4.17 µM (inactive)	3.81 µM (inactive)	0.728 µM (active)	4.69 µM (inactive)
CCOC(=O)c1cc2cc(CSc3ccccc3)ccc2oc1=O	> 100 µM (inactive)	> 100 µM (inactive)	> 100 µM (inactive)	> 100 µM (inactive)	45.9 µM (inactive)	> 100 µM	> 100 µM (inactive)	52.6 µM (inactive)	> 100 µM (inactive)	38.4 µM (inactive)	> 100 µM (inactive)	> 100 µM (inactive)	> 100 µM (inactive)	> 100 µM (inactive)	> 100 µM (inactive)	57.9 µM (inactive)	> 100 µM (inactive)	51.5 µM (inactive)	> 100 µM (inactive)	46.8 µM (inactive)
Nc1nnc2oc3ccc4ccccc4c3cc1-2	20 µM (inactive)	27 µM (inactive)	34 µM (inactive)	32.4 µM (inactive)	29 µM (inactive)	28 µM	22.9 µM (inactive)	24.5 µM (inactive)	29.7 µM (inactive)	21.4 µM (inactive)	38.2 µM (inactive)	23.5 µM (inactive)	67.5 µM (inactive)	48.8 µM (inactive)	23.1 µM (inactive)	42 µM (inactive)	26.2 µM (inactive)	37.4 µM (inactive)	24.5 µM (inactive)	51.8 µM (inactive)
CCOc1ccc(C2c3[nH]c4ccccc4c3CCN2C(=O)c2cccs2)cc1 (stereo not given)	44.5 µM (inactive)	2.2 µM (inactive)	52.4 µM (inactive)	36.4 µM (inactive)	6.04 µM (inactive)	1.74 µM	> 100 µM (inactive)	9.33 µM (inactive)	9.08 µM (inactive)	35.6 µM (inactive)	5.98 µM (inactive)	6.52 µM (inactive)	> 100 µM (inactive)	9.14 µM (inactive)	2.62 µM (inactive)	> 100 µM (inactive)	> 100 µM (inactive)	37.7 µM (inactive)	3.48 µM (inactive)	23.8 µM (inactive)
COc1ccc2/c(=C/c3ccc(N(C)C)cc3)c3cc(-c4ccccc4)[n+](C)n3c2c1	0.405 µM (active)	0.245 µM (active)	0.292 µM (active)	0.0568 µM (active)	0.199 µM (active)	1 µM	0.223 µM (active)	0.31 µM (active)	0.192 µM (active)	0.285 µM (active)	0.104 µM (active)	0.161 µM (active)	0.282 µM (active)	1.2 µM (inactive)	0.092 µM (active)	0.239 µM (active)	0.0931 µM (active)	0.139 µM (active)	0.395 µM (active)	0.134 µM (active)
C[C@H](CCC(=O)NCC(=O)O)[C@H]1CC[C@H]2[C@@H]3[C@H](O)C[C@@H]4C[C@H](O)CC[C@]4(C)[C@H]3CC[C@]12C	> 100 µM (inactive)	> 100 µM (inactive)	> 100 µM (inactive)	> 100 µM (inactive)	> 100 µM (inactive)	> 100 µM	> 100 µM (inactive)	> 100 µM (inactive)	> 100 µM (inactive)	0.75 µM (active)	> 100 µM (inactive)	> 100 µM (inactive)	> 100 µM (inactive)	> 100 µM (inactive)	> 100 µM (inactive)	> 100 µM (inactive)	> 100 µM (inactive)	> 100 µM (inactive)	> 100 µM (inactive)	> 100 µM (inactive)
CC1=NN(c2ccc(S(=O)(=O)O)cc2)C(=O)/C1=C/c1ccc(Cl)cc1.c1ccncc1	> 100 µM (inactive)	> 100 µM (inactive)	> 100 µM (inactive)	> 100 µM (inactive)	> 100 µM (inactive)	> 100 µM	> 100 µM (inactive)	> 100 µM (inactive)	> 100 µM (inactive)	> 100 µM (inactive)	> 100 µM (inactive)	> 100 µM (inactive)	> 100 µM (inactive)	> 100 µM (inactive)	> 100 µM (inactive)	> 100 µM (inactive)	> 100 µM (inactive)	> 100 µM (inactive)	> 100 µM (inactive)	> 100 µM (inactive)
C[n+]1cc2cc(O)c(O)cc2c2ccc3cc(O)c(O)cc3c21.c1ccncc1	2.69 µM (inactive)	2.86 µM (inactive)	2.18 µM (inactive)	3.1 µM (inactive)	1.75 µM (inactive)	2.47 µM	2.96 µM (inactive)	2.79 µM (inactive)	3.96 µM (inactive)	3.31 µM (inactive)	3.3 µM (inactive)	2.61 µM (inactive)	4.33 µM (inactive)	3.05 µM (inactive)	2.09 µM (inactive)	4.01 µM (inactive)	2.31 µM (inactive)	2.18 µM (inactive)	1.17 µM (inactive)	1.49 µM (inactive)
CC(C)=CCC[C@@H](C)C1=C(O)C(=O)C(C)=C(N)C1=O	18 µM (inactive)	10.2 µM (inactive)	21.5 µM (inactive)	17.9 µM (inactive)	15.6 µM (inactive)	4.85 µM	35.5 µM (inactive)	46.5 µM (inactive)	23.3 µM (inactive)	28.8 µM (inactive)	40.8 µM (inactive)	15.7 µM (inactive)	27.3 µM (inactive)	24 µM (inactive)	16.7 µM (inactive)	50.2 µM (inactive)	53.8 µM (inactive)	20.5 µM (inactive)	6.11 µM (inactive)	32.5 µM (inactive)
